Our source for the Ki values is patent US5798247A, “Organic-chemical compound with ice-inhibitory action” (BASF Aktiengesellschaft, priority 1997, dated 1998).

This experiment concerns the target T1, interleukin converting enzyme (ICE) (Homo sapiens, UniProt P29466).
T1 sequence (P29466 120-297 limits assumed): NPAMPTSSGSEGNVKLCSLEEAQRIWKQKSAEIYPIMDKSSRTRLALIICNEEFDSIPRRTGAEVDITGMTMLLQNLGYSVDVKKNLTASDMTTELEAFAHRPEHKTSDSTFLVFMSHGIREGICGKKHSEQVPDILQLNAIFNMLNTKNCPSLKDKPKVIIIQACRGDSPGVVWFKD
T1 sequence (P29466 317-404 limits assumed): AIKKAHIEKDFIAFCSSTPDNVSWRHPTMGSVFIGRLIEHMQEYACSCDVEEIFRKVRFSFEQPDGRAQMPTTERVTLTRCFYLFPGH
The experiment can be described thus: ICE inhibition (inhibition constant). The following applies: reversible covalent binding (thiohemiacetal linkage) to ICE. The experiment is classed as biochemical.

In turn, `O=C(c1ccccc1)c1ccccn1` [2-Benzoylpyridine] yielded a Ki of around 1000 nM.
